Common to all, as to assay type: functional
The subject of one assay is Acinetobacter pittii. The experiment in a line: Antimicrobial activity against Acinetobacter genospecies 3 isolate Ac057 expressing beta-lactamase Oxa-58 by broth microdilution method.
Assay [1] concerns Acinetobacter baumannii. The experiment in a line: Antimicrobial activity against Acinetobacter baumannii isolate Ac058 expressing beta-lactamase Oxa-58 by broth microdilution method.
For assay [2], the system named is Acinetobacter baumannii. The experiment in a line: Antimicrobial activity against Acinetobacter baumannii isolate Ac058 expressing beta-lactamase Oxa-58 by broth microdilution method in presence of beta-lactamase inhibitor Sulbactam.

Values after ≈ are worked out from the molar mass of the structure shown.

Regarding `C[C@@H](O)[C@H]1C(=O)N2C(C(=O)O)=C(SCCNC=N)C[C@H]12` [IMIPENEM ANHYDROUS], the minimal inhibitory concentration (MIC) in the assay with Acinetobacter pittii and against Acinetobacter baumannii [1] was above 32 µg/mL each time.

Regarding `CO/N=C(\C(=O)N[C@@H]1C(=O)N2C(C(=O)[O-])=C(C[N+]3(C)CCCC3)CS[C@H]12)c1csc(N)n1` [CEFEPIME], the minimum inhibitory concentration (MIC) against Acinetobacter pittii is 8 µg/mL (≈ 16.6 µM); against Acinetobacter baumannii [1] it was 64 µg/mL (≈ 133 µM).

In the case of `NC[C@H]1O[C@H](O[C@H]2[C@H](O)[C@@H](O[C@H]3O[C@H](CO)[C@@H](O)[C@H](N)[C@H]3O)[C@H](N)C[C@@H]2N)[C@H](N)C[C@@H]1O` [TOBRAMYCIN], the MIC in the assay on Acinetobacter pittii turned out to be 0.25 µg/mL (≈ 0.535 µM); with Acinetobacter baumannii [1] it was 64 µg/mL (≈ 137 µM).

On to GENTAMICIN, for which the minimum inhibitory concentration (MIC) against Acinetobacter pittii was below 1 µg/mL; in the assay with Acinetobacter baumannii [1], 16 µg/mL.

In the case of `CCN1CCN(C(=O)N[C@@H](C(=O)N[C@@H]2C(=O)N3[C@@H]2SC(C)(C)[C@@H]3C(=O)O)c2ccccc2)C(=O)C1=O` [PIPERACILLIN], the MIC in the assay on Acinetobacter pittii and in the assay on Acinetobacter baumannii [1] was 512 µg/mL (≈ 989 µM) each time.

Consider `CC[C@H]1OC(=O)[C@H](C)[C@@H](O[C@H]2C[C@@](C)(OC)[C@@H](O)[C@H](C)O2)[C@H](C)[C@@H](O[C@@H]2O[C@H](C)C[C@H](N(C)C)[C@H]2O)[C@](C)(O)C[C@@H](C)CN(C)[C@H](C)[C@@H](O)[C@]1(C)O` [AZITHROMYCIN], for which the MIC against Acinetobacter pittii amounted to 4 µg/mL (≈ 5.34 µM); in the assay on Acinetobacter baumannii [1], 128 µg/mL (≈ 171 µM).

For `C[C@H]1c2cccc(O)c2C(=O)C2=C(O)[C@]3(O)C(=O)C(C(N)=O)=C(O)[C@@H](N(C)C)[C@@H]3[C@@H](O)[C@@H]21.O` [DOXYCYCLINE], the figures for the MIC with Acinetobacter pittii and in the assay on Acinetobacter baumannii [1] were below 0.5 µg/mL and 16 µg/mL, respectively.

Take `CC(C)(O/N=C(\C(=O)N[C@@H]1C(=O)N2C(C(=O)[O-])=C(C[n+]3ccccc3)CS[C@H]12)c1csc(N)n1)C(=O)O` [CEFTAZIDIME]: the minimum inhibitory concentration (MIC) in the assay with Acinetobacter pittii is 8 µg/mL (≈ 14.6 µM); against Acinetobacter baumannii [1], 256 µg/mL (≈ 468 µM).

`O=C(O)c1cn(C2CC2)c2cc(N3CCNCC3)c(F)cc2c1=O` [CIPROFLOXACIN] showed an MIC in the assay on Acinetobacter pittii of 32 µg/mL (≈ 96.6 µM).

Regarding `CO[C@@]1(NC(=O)Cc2cccs2)C(=O)N2C(C(=O)O)=C(COC(N)=O)CS[C@@H]21` [CEFOXITIN], the MIC with Acinetobacter pittii and against Acinetobacter baumannii [1] was 256 µg/mL (≈ 599 µM) throughout.

For the molecule `C[C@@H](O)[C@H]1C(=O)N2C(C(=O)O)=C(S[C@@H]3CN[C@H](C(=O)N(C)C)C3)[C@H](C)[C@H]12` [MEROPENEM], the MIC in the assay with Acinetobacter pittii and with Acinetobacter baumannii [1] was 8 µg/mL (≈ 20.9 µM) each time.

In the case of `CO[C@H]1/C=C/O[C@@]2(C)Oc3c(C)c(O)c4c(O)c(c(/C=N/N5CCN(C)CC5)c(O)c4c3C2=O)NC(=O)/C(C)=C\C=C\[C@H](C)[C@H](O)[C@@H](C)[C@@H](O)[C@@H](C)[C@H](OC(C)=O)[C@@H]1C` [RIFAMPIN], the minimal inhibitory concentration (MIC) in the assay on Acinetobacter pittii and in the assay with Acinetobacter baumannii [1] was 2 µg/mL (≈ 2.43 µM) each time.

Take `CC1(C)S[C@@H]2[C@H](NC(=O)[C@H](N)c3ccccc3)C(=O)N2[C@H]1C(=O)O` [AMPICILLIN]: the minimum inhibitory concentration (MIC) in the assay on Acinetobacter pittii turned out to be 256 µg/mL (≈ 733 µM); against Acinetobacter baumannii [1], 256 µg/mL (≈ 733 µM); in the assay on Acinetobacter baumannii [2], 64 µg/mL.

As to `NCC[C@H](O)C(=O)N[C@@H]1C[C@H](N)[C@@H](O[C@H]2O[C@H](CN)[C@@H](O)[C@H](O)[C@H]2O)[C@H](O)[C@H]1O[C@H]1O[C@H](CO)[C@@H](O)[C@H](N)[C@H]1O` [AMIKACIN], the minimal inhibitory concentration (MIC) against Acinetobacter pittii was determined as 0.5 µg/mL (≈ 0.854 µM); against Acinetobacter baumannii [1] it was 256 µg/mL (≈ 437 µM).

In the case of `CC(=O)OCC1=C(C(=O)O)N2C(=O)[C@@H](NC(=O)Cc3cccs3)[C@H]2SC1` [CEPHALOTHIN], the MIC against Acinetobacter pittii and against Acinetobacter baumannii [1] was 256 µg/mL (≈ 646 µM) each time.

In the case of POLYMYXIN B, the MIC in the assay on Acinetobacter pittii is 2 µg/mL; against Acinetobacter baumannii [1], 1 µg/mL.
